Data as given in publication PMC10937238 (Saudi Pharmaceutical Journal : SPJ, 2024).

Columns and labels:
[1] = target: T1, MERS-CoV PLpro (Human betacoronavirus 2c EMC/2012, UniProt K0BWD0); type: binding
[2] = target: T1, MERS-CoV PLpro; test: biochemical
[3] = target: T1, MERS-CoV PLpro; test: biochemical; type: binding; details: read-out: SA (111.5 μM)

COc1ccc2c(c1)c(CC(=O)O)c(C)n2C(=O)c1ccc(Cl)cc1 [Indomethacin] was tested, and the “Indomethacin (279.5 μM)” value [1] was 1.44 °C.
Work on COc1cc(/C=C/C(=O)O)cc(OC)c1O [sinapic acid] yielded an IC50 [2] of 68.6 µM and a ΔTm at 111.5 µM [3] of 18.4 °C.
